Columns and labels:
HSP90α protein = molecular target: T1, HSP90α protein (Homo sapiens, UniProt P07900); experiment: HSP90α-binding FP (FITC) assay; settings: FP competition with FITC-geldanamycin
T1 construct: purchased BPS Bioscience #50298
Protocol: Binding of test compounds to HSP90α protein was measured by fluorescent polarization (FP) using the HSP90α (N-terminal) Assay Kit (BPS Bioscience, #50298), following the manufacturer's instructions, except as noted. Fluorescently labeled HSP90-binding compounds, either the provided FITC-geldanamycin (5 nM final concentration) or RNK04010, a triazolone-based HSP90 binding small molecule labeled with BODIPY through a piperazine-phenyl linker (5 nM final concentration) were employed. A 2.5-fold serial dilution of each test compound ranging from 20 μM to 5.2 nM was assayed for binding to HSP90α. After the final step of adding HSP90α protein to each assay well, plates were mixed by brief shaking, incubated at 25° C. for 120 min for FITC-geldanamycin or 300 min for RNK04010, and fluorescence was measured using a PerkinElmer EnVision Plate Reader.

[1] = system: U-87 MG human glioblastoma; experiment: U87 MG CCK-8 proliferation assay; format: cell-based; settings: Homo sapiens, U-87 MG, 72 h, U-87 MG cells, read-out: U87MG CCK-8
How it was run: (§1)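 3-fold dilution series, 20 μM–1.02 nM; ATCC culture conditions; CCK-8 absorbance read-out; % inhibition = 100 − (D−B)/(S−B)×100, S = DMSO cells, B = medium + DMSO, no cells.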

[2] = system: MV-4-11 human acute myeloid leukemia; experiment: MV-4-11 CCK-8 proliferation assay; format: cell-based; settings: Homo sapiens, MV4-11; MV-4-11 cells, 72 hr
How it was run: as §1

ERBB2 = ERBB2 (HER2) flow cytometry protein degradation assay in BT-474 cells; format: cell-based, human; settings: DC50, BT-474 cells, 24 hr
How it was run: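 BT-474 cells trypsinised after compound treatment and stained with PE-conjugated anti-ERBB2 antibody, 30 min at 25° C in the dark, then fixed in 1% paraformaldehyde for flow cytometry. % inhibition = 100−(D−B)/(S−B)*100, using treated, untreated-stained and unstained cell fluorescence.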

IC50 (HSP90α protein) [µM] | EC50 [1] [µM] | EC50 [2] [µM] | SMILES | ERBB2 degradation (ERBB2)
0.1 to 1 | > 1 | 0.1 to 1 | CCOc1cc(N2CCC(C(=O)N3CCC(CN4CCC(COc5ccc(Nc6cc(-n7nc(C(F)(F)F)c8c7CC(C)(C)CC8=O)ccc6C(N)=O)cc5)CC4)CC3)CC2)ccc1Nc1ncc2c(n1)N(C)c1ccccc1C(=O)N2C [Compound 129, 4-(6,6-dimethyl-4-oxo-3-(trifluoromethyl)-4,5,6,7-tetrahydro-1H-indazol-1-yl)-2-((4-((1-((1-(1-(4-((5,11-dimethyl-6-oxo-6,11-dihydro-5H-benzo[e]pyrimido[5,4-b][1,4]diazepin-2-yl)amino)-3-ethoxyphenyl)piperidine-4-carbonyl)piperidin-4-yl)methyl)piperidin-4-yl)methoxy)phenyl)amino)benzamide] | –
> 1 | > 1 | 0.1 to 1 | CCOc1cc(N2CCC(C(=O)N3CCC(CN4CCN(CCOc5ccc(Nc6cc(-n7nc(C(F)(F)F)c8c7CC(C)(C)CC8=O)ccc6C(N)=O)cc5)CC4)CC3)CC2)ccc1Nc1ncc2c(n1)N(C)c1ccccc1C(=O)N2C [Compound 130, 4-(6,6-dimethyl-4-oxo-3-(trifluoromethyl)-4,5,6,7-tetrahydro-1H-indazol-1-yl)-2-((4-(2-(4-((1-(1-(4-((5,11-dimethyl-6-oxo-6,11-dihydro-5H-benzo[e]pyrimido[5,4-b][1,4]diazepin-2-yl)amino)-3-ethoxyphenyl)piperidine-4-carbonyl)piperidin-4-yl)methyl)piperazin-1-yl)ethoxy)phenyl)amino)benzamide] | –
> 1 | > 1 | 0.1 to 1 | CCOc1cc(N2CCC(C(=O)NCCOCCOCCOCCOc3ccc(Nc4cc(-n5nc(C(F)(F)F)c6c5CC(C)(C)CC6=O)ccc4C(N)=O)cc3)CC2)ccc1Nc1ncc2c(n1)N(C)c1ccccc1C(=O)N2C [Compound 132, N-(2-(2-(2-(2-(4-((2-carbamoyl-5-(6,6-dimethyl-4-oxo-3-(trifluoromethyl)-4,5,6,7-tetrahydro-1H-indazol-1-yl)phenyl)amino)phenoxy)ethoxy)ethoxy)ethoxy)ethyl)-1-(4-((5,11-dimethyl-6-oxo-6,11-dihydro-5H-benzo[e]pyrimido[5,4-b][1,4]diazepin-2-yl)amino)-3-ethoxyphenyl)piperidine-4-carboxamide] | –

More lines, now with the values behind:

SMILES | IC50 (HSP90α protein) [µM] | EC50 [1] [µM] | EC50 [2] [µM] | ERBB2 degradation (ERBB2)
CCOc1cc(N2CCC(OCC(=O)N3CCN(Cc4ccc(-n5c(O)nnc5-c5cc(C(C)C)c(O)cc5O)cc4)CC3)CC2)ccc1Nc1ncc2c(n1)N(C)c1ccccc1C(=O)N2C [Compound 001, 2-((4-(4-(2-(4-(4-(3-(2,4-dihydroxy-5-isopropylphenyl)-5-hydroxy-4H-1,2,4-triazol-4-yl)benzyl)piperazin-1-yl)-2-oxoethoxy)piperidin-1-yl)-2-ethoxyphenyl)amino)-5,11-dimethyl-5H-benzo[e]pyrimido[5,4-b][1,4]diazepin-6(11H)-one] | < 0.1 | > 1 | 0.1 to 1 | C (DC50 > 1000 nM)
CCOc1cc(N2CCC(C(=O)N3CCC(CN4CCN(C(=O)c5ccc(-n6c(O)nnc6-c6cc(C(C)C)c(O)cc6O)cc5)CC4)CC3)CC2)ccc1Nc1ncc2c(n1)N(S(C)(=O)=O)c1ccccc1C(=O)N2C [Compound 127, 2-((4-(4-(4-((4-(4-(3-(2,4-dihydroxy-5-isopropylphenyl)-5-hydroxy-4H-1,2,4-triazol-4-yl)benzoyl)piperazin-1-yl)methyl)piperidine-1-carbonyl)piperidin-1-yl)-2-ethoxyphenyl)amino)-5-methyl-11-(methylsulfonyl)-5,11-dihydro-6H-benzo[e]pyrimido[5,4-b][1,4]diazepin-6-one] | 0.1 to 1 | 0.1 to 1 | 0.1 to 1 | –

From US20240124460A1, “METHODS AND COMPOSITIONS FOR TARGETED PROTEIN DEGRADATION” (Ranok Therapeutics (Hangzhou) Co. Ltd., priority 2020, published 2024)
